Laboratory results published in US20070249635A1, “Fungicidal Mixtures Based on a Triazolopyrimidine Derivative and a Conazole” (BASF Aktiengesellschaft, priority 2003, published 2007).

System: Plasmopara viticola
Test: activity against peronospora of grapevines caused by Plasmopara viticola (protective spray on potted vines, cultivar Riesling)
Type: in vivo
Conditions: individual active compound, untreated control 90% infection
Description: The active compounds, separately or jointly, were prepared as a stock solution comprising 0.25% by weight of active compound in acetone or DMSO. 1 % by weight of the emulsifier Uniperol® EL (wetting agent having emulsifying and dispersant action based on ethoxylated alkylphenols) was added to this solution, and the mixture was diluted with water to the desired concentration.
Use example—activity against peronospora of gravevines caused by Plasmopara viticola
Leaves of potted vines of the cultivar “Riesling” were sprayed to runoff point with an aqueous suspension having the concentration of active compound stated below. The next day, the undersides of the leaves were inoculated with an aqueous zoospore suspension of Plasmopara viticola. The grapevines were then initially placed in a water-vapor-saturated chamber at 24° C. for 48 hours and then in a greenhouse at 20-30° C. for 5 days. After this period of time, the plants were again placed in a humid chamber for 16 hours to promote sporangiophore eruption. The extent of the development of the disease on the undersides of the leaves was then determined visually.
The visually determined percentages of infected leaf areas were converted into efficacies as % of the untreated control:
The efficacy (E) is calculated as follows using Abbot's formula: E=(1−α/β)·100 • α corresponds to the fungicidal infection of the treated plants in % and • β corresponds to the fungicidal infection of the untreated (control) plants in %
An efficacy of 0 means that the infection level of the treated plants corresponds to that of the untreated control plants; an efficacy of 100 means that the treated plants were not infected.
The expected efficacies of combinations of active compounds were determined using Colby's formula (Colby, S.R. “Calculating synergistic and antagonistic responses of herbicide combinations”, Weeds, 15, 20-22, 1967) and compared with the observed efficacies. Colby's formula: E=x+y−x·y/100 • E expected efficacy, expressed in % of the untreated control, when using the mixture of the active compounds A and B at the concentrations a and b • x efficacy, expressed in % of the untreated control, when using the active compound A at the concentration a • y efficacy, expressed in % of the untreated control, when using the active compound B at the concentration b

Structure (SMILES) | Efficacy in % of the untreated control (4 ppm in the spray liquor) | Efficacy in % of the untreated control (1 ppm in the spray liquor) | Efficacy in % of the untreated control (16 ppm in the spray liquor)
CC1CCN(c2c(-c3c(F)cccc3Cl)c(Cl)nc3ncnn23)CC1 [A] | 11% |  | 
C[C@H](Nc1c(-c2c(F)cc(F)cc2F)c(Cl)nc2ncnn12)C(F)(F)F [B] | 11% |  | 
CC1CCN(c2c(-c3c(F)cc(F)cc3F)c(Cl)nc3ncnn23)CC1 [I, 5-chloro-7-(4-methylpiperidin-1-yl)-6-(2,4,6-trifluorophenyl)-[1,2,4]triazolo[1,5-a]pyrimidine] | 56% |  | 
CC(C1CC1)C(O)(Cn1cncn1)c1ccc(Cl)cc1 (stereo not drawn) [II, 2-(4-chlorophenyl)-3-cyclopropyl-1-[1,2,4]triazol-1-ylbutan-2-ol] | 0% | 0% | 0%
